Measured values: publication PMC7366314 (ACS chemical biology, 2020)

Columns and labels:
B6 mice = test: Glucose tolerance test; format: in vivo, mouse; details: B6 mice fasted overnight, 10 nmol/kg IP, glucose 2 g/kg IP 30 min later
Leprdb mice = test: Anti-hyperglycemic effect in diabetic Leprdb; format: in vivo, mouse; details: single IP injection 10 nmol/kg
proteinase K = proteinase K (Parengyodontium album, UniProt P06873); test: Peptide proteolysis assay with proteinase K, intact peptide by LC/MS; details: 50 mM Tris HCl pH 7.4, LC/MS
Chain of proteinase K (P06873 106-384): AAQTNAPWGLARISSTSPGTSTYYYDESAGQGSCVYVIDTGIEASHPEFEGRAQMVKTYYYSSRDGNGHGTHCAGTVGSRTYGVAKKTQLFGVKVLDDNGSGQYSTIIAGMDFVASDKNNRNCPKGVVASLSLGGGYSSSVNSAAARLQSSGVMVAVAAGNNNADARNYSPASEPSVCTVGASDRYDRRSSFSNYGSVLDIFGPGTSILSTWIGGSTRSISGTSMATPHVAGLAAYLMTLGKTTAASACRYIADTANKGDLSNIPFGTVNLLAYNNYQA

[1] = Ex vivo mouse plasma stability testing; format: in vitro ADME; details: for plasma half-life, fold greater than the natural GLP-1 peptide: ex vivo mouse plasma, 10 μM, 37°C, LC/MS/MS

SMILES	time to euglycemia after the glucose bolus (GTT) (B6 mice) [min]	initial reduction in serum glucose (Leprdb mice; 15 min p=0.0032, 30 min p=0.0001 vs semaglutide)	fold reduction in glucose level compared to vehicle and wild-type GLP-1 (Leprdb mice; sustained for 12 hours, n=8)	fold improvement of proteinase K half-life compared to control (wild-type) GLP-1 (proteinase K)	plasma half-life, fold greater than the natural GLP-1 peptide [1] [fold]	half-life at 10 µM ([1]; mouse, plasma (freshly drawn, lithium heparin)) [h]
CC[C@H](C)[C@@H]1NC(=O)[C@H](Cc2ccccc2)NC(=O)[C@H](CCC(=O)O)NC(=O)[C@H](CCCCN)NC(=O)[C@H](C)NC(=O)[C@H](C)NC(=O)[C@@]2(CCCC=CCCCCCC[C@@](C)(NC(=O)[C@H](CC(=O)O)NC(=O)[C@H](CO)NC(=O)[C@@H](NC(=O)[C@H](Cc3ccccc3)NC(=O)[C@@H](NC(=O)CNC(=O)[C@H](CCC(=O)O)NC(=O)C(C)(C)NC(=O)[C@@H](N)Cc3c[nH]cn3)[C@@H](C)O)[C@@H](C)O)C(=O)N[C@@H](CO)C(=O)N[C@@H](CO)C(=O)N[C@@H](Cc3ccc(O)cc3)C(=O)N[C@@H](CC(C)C)C(=O)N[C@@H](CCC(=O)O)C(=O)NCC(=O)N2)CCCC=CCCCCCC[C@@](C)(C(=O)N[C@@H](Cc2c[nH]c3ccccc23)C(=O)N[C@@H](CC(C)C)C(=O)N[C@H](C(=O)N[C@@H](CCCCN)C(=O)NCC(=O)N[C@@H](CCCNC(=N)N)C(N)=O)C(C)C)NC1=O [SAH-GLP-1-A8J(16,23,30)]	≤ 60	more rapid, initial reduction in serum glucose compared to semaglutide	2–2.5 fold	over 24 fold	23	5.33
CC[C@H](C)[C@H](NC(=O)[C@H](Cc1ccccc1)NC(=O)[C@H](CCC(=O)O)NC(=O)[C@H](CCCCNC(=O)COCCOCCNC(=O)COCCOCCNC(=O)CC[C@H](NC(=O)CCCCCCCCCCCCCCCCC(=O)O)C(=O)O)NC(=O)[C@H](C)NC(=O)[C@H](C)NC(=O)[C@H](CCC(N)=O)NC(=O)CNC(=O)[C@H](CCC(=O)O)NC(=O)[C@H](CC(C)C)NC(=O)[C@H](Cc1ccc(O)cc1)NC(=O)[C@H](CO)NC(=O)[C@H](CO)NC(=O)[C@@H](NC(=O)[C@H](CC(=O)O)NC(=O)[C@H](CO)NC(=O)[C@@H](NC(=O)[C@H](Cc1ccccc1)NC(=O)[C@@H](NC(=O)CNC(=O)[C@H](CCC(=O)O)NC(=O)C(C)(C)NC(=O)[C@@H](N)Cc1cnc[nH]1)[C@@H](C)O)[C@@H](C)O)C(C)C)C(=O)N[C@@H](C)C(=O)N[C@@H](Cc1c[nH]c2ccccc12)C(=O)N[C@@H](CC(C)C)C(=O)N[C@H](C(=O)N[C@@H](CCCNC(=N)N)C(=O)NCC(=O)N[C@@H](CCCNC(=N)N)C(=O)NCC(=O)O)C(C)C [semaglutide, reference compound]	–	–	–	–	12	–
